PMC10597491 (PLOS ONE, 2023)
Bridge positions count the residues as written; N and C are the ends. Ends that are not written are not given here.

Legend:
[1] = target: T1, human γc ECD (Homo sapiens, UniProt P31785); experiment: Competition binding ELISA, human γc ECD; details: immobilized Fc-γc ECD; tracer biotinylated MDK1188 pre-complexed with Neutravidin-HRP; 4°C
T1 construct: human IL-2Rα(aa 23–254)-Fc, Acro Cat# ILG-H5256; purchased Acro ILG-H5256
T1 sequence (P31785 23-254): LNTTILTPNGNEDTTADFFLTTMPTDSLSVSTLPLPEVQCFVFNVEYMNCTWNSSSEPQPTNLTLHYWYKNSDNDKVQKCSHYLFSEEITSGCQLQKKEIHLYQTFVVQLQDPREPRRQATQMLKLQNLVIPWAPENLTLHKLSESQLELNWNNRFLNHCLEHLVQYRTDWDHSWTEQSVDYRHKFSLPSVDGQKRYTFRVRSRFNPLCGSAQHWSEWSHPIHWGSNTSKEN
Excerpt: (A, B) Determination of IC50 values in a competition ELISA for compound binding to human and cyno IL-7Rα and γc. The assay format is IL-7Rα-(His)6-tagged ECD or Fc-γc ECD immobilized on 96-well plates. Tracers are C-terminal biotinylated forms of the reference IL-7Rα and γc peptide ligands, each pre-complexed with Neutravidin-HRP (NA-HRP). (C, D) Label-free measurement of the equilibrium dissociation constant (KD) for peptide binding to IL-7Rα and γc extracellular domains with peptides was performed by biolayer interferometry as detailed in methods. Red lines depict 1:1 binding fit from Gator™ software. Blue lines represent individual BLI sensogram data taken every 0.1 seconds.
Binding was determined using a competition binding ELISA. Microtiter plates (Immulon 4HBX flat bottom 96-well) were coated with 50 μL of […] human ECDs: IL-7Rα(aa 21–236)-His6, Sino Biological Cat# 10975-H08H; cynomolgus IL-7Rα(aa 21–235)-His6, Sino Biological Cat# 90332-C08H; human IL-2Rα(aa 23–254)-Fc, Acro Cat# ILG-H5256; cynomolgus IL-2Rα(aa 23–254)-Fc, made in-house, in PBS overnight at 4°C. […] Plates were washed with cold wash buffer, and bound tracer was detected using TMB One Component HRP substrate and Stop Solution (Surmodics Cat# TMBW-1000-01 and LSTP-0100-01). Absorbance at 450 nm was read using Agilent BioTek Synergy HTX Multimode Reader.

[2] = tested on: cynomolgus monkey PBMCs; experiment: pSTAT5 flow cytometry in cynomolgus PBMC subsets; assay type: cell-based, cynomolgus macaque; details: rested cynomolgus PBMCs
Excerpt: Frozen PBMCs from 5 healthy human donors (A, B) and cynomolgus monkey (C) were rested (A, C) or activated with anti-CD3/CD28 (B). Cells were stained for viability, followed by cell surface antibody staining on ice. […] After washing, cells were fixed, permeabilized, stained with anti-pSTAT5 antibody, and analyzed immediately by flow cytometry. The mean fluorescence intensity (MFI) of pSTAT5 detection was shown as mean ± SEM. […] Flow cytometry gating data shown in S2 Fig.
To detect phopho-STAT5 in immune subsets of PBMCs by flow cytometry, frozen human and cynomolgus macaques PBMCs (Stemcell Technologies, Cat# 70025.2 and iQ Biosciences, Cat# IQB-MnPB102, respectively) from 5 different healthy donors were thawed and rested overnight in T-cell media (CTS™ OpTmizer™ T-Cell Expansion SFM, ThermoFisher Scientific Cat# A1048501) at 37°C. Cells were stained with a viability dye for 30 min at 37°C followed by surface marker antibodies for 30 min on ice (S3 Table), then treated with serially diluted test compounds in the medium for 30 min. […] Antibody-stained cells were analyzed immediately by flow cytometry using the Novocyte Advanteon instrument (Agilent), and the data were analyzed using FlowJo software. Fluorescence minus one (FMO) controls were used to draw gates. […]

IC50 [1] [nM]	Substance	efficacy in cynomolgus lymphocyte subtypes [2]
57	Ac-GWGIPWCTLDPGSLQCAWLGKHGGGGSGGVVCQDWEGVELCWQGG (disulfide 7-16, 32-41) [MDK1472]	–
–	IL-7: human IL-7 cytokine (Peprotech)	equivalent efficacy
